According to patent US20220073521A1, “PYRIMIDINE AND FIVE-MEMBERED NITROGEN HETEROCYCLE DERIVATIVE, PREPARATION METHOD THEREFOR, AND MEDICAL USES THEREOF” (Tuojie Biotech (Shanghai) Co., Ltd., priority 2018, published 2022):
Where two headings read alike, the source gives them in different places.

Legend:
SHP2 E76K = target: T1, SHP2 E76K (Homo sapiens, UniProt Q06124, E76K); experiment: In vitro activity on SHP2 mutant E76K phosphatase; assay type: biochemical
T1 construct: recombinantly expressed full-length SHP2 (aa 1-593) with E69K and E76K; purchased Novoprotein Scientific Inc
T1 sequence (Q06124 1-593 E76K): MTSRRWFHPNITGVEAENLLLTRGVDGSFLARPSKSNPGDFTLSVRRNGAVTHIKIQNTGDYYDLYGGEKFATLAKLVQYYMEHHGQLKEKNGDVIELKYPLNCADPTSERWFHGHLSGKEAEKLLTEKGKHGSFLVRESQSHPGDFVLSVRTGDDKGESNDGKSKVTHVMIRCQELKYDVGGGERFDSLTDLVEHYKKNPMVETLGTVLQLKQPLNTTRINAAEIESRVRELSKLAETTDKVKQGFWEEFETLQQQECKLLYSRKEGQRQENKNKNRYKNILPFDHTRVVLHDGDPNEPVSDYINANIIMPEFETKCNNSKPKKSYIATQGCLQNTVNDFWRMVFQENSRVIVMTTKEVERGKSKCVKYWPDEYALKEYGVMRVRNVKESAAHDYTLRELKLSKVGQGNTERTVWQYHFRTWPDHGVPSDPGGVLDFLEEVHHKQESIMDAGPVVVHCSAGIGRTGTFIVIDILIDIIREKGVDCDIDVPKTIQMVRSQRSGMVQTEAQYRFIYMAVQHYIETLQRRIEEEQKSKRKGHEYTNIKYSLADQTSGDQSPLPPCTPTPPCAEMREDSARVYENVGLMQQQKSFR
Experimental: The reaction solution was shaked (350 rpm) at room temperature for 30 minutes. The reaction substrate DiFMUP with a final concentration of 30 μM was added, and the reaction solution was reacted at room temperature for 30 minutes. The phosphatase reaction was stopped by adding 5 μL of stop solution (60 mM HEPES, pH 7.5, 0.2% SDS).

p-ERK in KYSE-520 cells = experiment: Determination of p-ERK in KYSE-520 cells (HTRF); assay type: cell-based; conditions: Homo sapiens
KYSE-520 cells = experiment: KYSE-520 cell proliferation experiment (CellTiter-Glo, 7 days); assay type: cell-based; conditions: Homo sapiens
[1] = Pharmacokinetics assay in rats; assay type: in vivo, SD rats; conditions: rat; for AUC / clearance / half-life / bioavailability / Cmax: male, SD, plasma; for AUC: read-out: Area under curve AUC; for clearance: read-out: Clearance CL_obs; for half-life: read-out: Half-life T1/2 (converted); for bioavailability: PO 5 mg/kg vs IV 1 mg/kg, read-out: Bioavailability F; for Cmax: read-out: Maximum plasma concentration Cmax
Experimental: Rats were used as test animals. The drug concentration in plasma at different time points was determined by LC/MS/MS method after intravenous administration or intragastrical administration of the compound of the present invention to rats. The pharmacokinetic behavior of the compound of the present invention was studied and evaluated in rats.
The atropisomer with a RT of 1.495 minutes in Examples 3 and 4, compounds of Example 17, Example 41 and Example 43.
Healthy male SD rats (6-8 weeks old), 3 rats per group.
Intravenous administration: A certain amount of the test compound was weighed, to which 10% by volume of N,N-dimethylacetamide, 33% by volume of triethylene glycol and 57% by volume of water were added to prepare a 1 mg/mL colorless, clear and transparent solution;
Intragastrical administration: A certain amount of the test compound was weighed, to which 0.5% by mass of hypromellose, 0.1% by volume of Tween 80 and 99.4% by volume of water were added to prepare a 1 mg/mL white suspension.
After an overnight fast, the SD rats were intravenously administered the test compound at an administration dose of 1 mg/kg, or intragastrically administered the test compound at an administration dose of 5 mg/kg.
(§1) The rats were intravenously administered the compound of the present invention. 0.2 ml of blood was taken from the jugular vein at 0.083, 0.25, 0.5, 1, 2, 4, 8 and 24 hours after the administration. The samples were placed in tubes containing EDTA-K2, and centrifuged at 4000 rpm and 4° C. for 5 minutes to separate the blood plasma. The plasma samples were stored at −75° C.
as §1, with “Or, the rats” for “The rats”, “were intragastrically” for “were intravenously”, “at” for “at 0.083,”
The content of the test compound in the plasma of rat after intragastrical administration of the test compound at different concentrations was determined: 50 μL of rat plasma at each time after administration was taken, to which 200 μL of a solution (50 ng/mL) of internal standard dexamethasone in acetonitrile was added. The plasma was vortex-mixed for 30 seconds, and centrifuged at 4700 rpm and 4° C. for 15 minutes. The supernatant was taken from the plasma samples, and a three-fold dilution was carried out by adding water. 2.0 μL of the supernatant was used for LC/MS/MS analysis.

Structure (SMILES) | IC50 (SHP2 E76K; SHP2 E76K the activated polypeptide was added IC50, activated polypeptide IRS1 added) | IC50 (SHP2 E76K; SHP2 E76K the activated polypeptide was not added IC50, activated polypeptide not added) | IC50 (p-ERK in KYSE-520 cells; 2 hours) | IC50 (KYSE-520 cells) | AUC ([1]; IV 1 mg/kg) | clearance ([1]; IV 1 mg/kg) | half-life ([1]; IV 1 mg/kg) | bioavailability [1] | AUC ([1]; PO 5 mg/kg) | half-life ([1]; PO 5 mg/kg) | Cmax ([1]; PO 5 mg/kg) | Apparent distribution volume Vss_obs ([1]; IV 1 mg/kg) | IC50 (SHP2 E76K; activated polypeptide IRS1 added, read-out: SHP2 E76K the activated polypeptide was added IC50) | IC50 (SHP2 E76K; activated polypeptide not added, read-out: SHP2 E76K the activated polypeptide was not added IC50) | IC50 (p-ERK in KYSE-520 cells; KYSE-520, 2 h)
CNc1nccc(Sc2c(C)nc(N3CCC4(CC3)Cc3ncccc3[C@H]4N)n3ccnc23)c1Cl [Example 41, (S)-1′-(8-((3-Chloro-2-(methylamino)pyridin-4-yl)thio)-7-methylimidazo[1,2-c]pyrimidin-5-yl)-5,7-dihydrospiro[cyclopenta[b]pyridine-6,4′-piperidin]-5-amine] | 134 nM | 5.4 nM | 14 nM | 58.3 nM | 1130 ± 210 ng·h/mL | 14.6 ± 2.6 mL/min/kg | 5.33 ± 0.11 h | 67.6 ± 10.9% | 3880 ± 631 ng·h/mL | 4.22 ± 0.11 h | 339 ± 88 ng/mL | 4.75 ± 0.72 L/kg |  |  | 
CNc1nccc(Sc2cnc(N3CCC4(CC3)Cc3ncccc3[C@H]4N)n3ccnc23)c1Cl [Example 43, (S)-1′-(8-((3-Chloro-2-(methylamino)pyridin-4-yl)thio)imidazo[1,2-c]pyrimidin-5-yl)-5,7-dihydrospiro[cyclopenta[b]pyridine-6,4′-piperidin]-5-amine] |  |  |  | 30.4 nM | 6640 ± 1360 ng·h/mL | 2.52 ± 0.52 mL/min/kg | 4.71 ± 0.27 h | 75.4 ± 7.5% | 25200 ± 2500 ng·h/mL | 4.17 ± 0.14 h | 2510 ± 405 ng/mL | 0.765 ± 0.082 L/kg | 78 nM | 4.2 nM | 4.8 nM
